Experimental findings from patent US9044428B2, “Neuritogenic peptides” (Neoloch ApS, priority 2005, dated 2015) are described below.

Assay [1] deals with rat brain after TBI. Put plainly: Neuroplasticity and neurite outgrowth in vivo after TBI (PSA-NCAM and GAP-43 immunostaining). How it is done:
Male rats (wistar) (tree groups, 5 rats/group) were injected s.c with different Epo peptides (each group individually with Epo 2, Epo 3 or Epo 4) three times according to the scheme: • 1. the day before the lesion: a single injection of a peptide per animal (1 mg/100 g animal weight); • 2. the 1st day after the lesion: a single injection of a peptide per animal (1 mg/100 g animal weight): • 3. the 2nd day after the lesion: a single injection of a peptide per animal (1 mg/100 g animal weight); • 4. the 3rd day after the lesion: animals are sacrificed.
Control groups were a group (4 rats) injected with the vehicle (water) and a group (4 rats), injected with human recombinant EPO (hrEPO) in dose 50 μg/100 g rat according to the above scheme.
A traumatic brain injury (TBI) was induced by applying dry ice (−78 C) to the extracranial surface of the skull for 60 sec, which induces a focal injury in the right fronto-parietal cortex. Three days after the lesion (3 dpl) rats were deeply anesthetized with Brietal (10 mg/100 gr) and fixed by transcardial perfusion with 0.9% NaCl and 0.3% heparin, followed by Zamboni's fixative. The brains were removed, dehydrated according to the standard protocol, embedded in paraffin, and cut in 6-μm-thick frontal sections for further evaluation by immunohistochemistry and TUNEL.
For immunohistochemistry the sections of the brains were incubated overnight with polyclonal rabbit anti-cow GFAP, GAP-43, 8-oxoguanine, or PSA-NCAM antibodies 1:250 (Dakopatts). The primary antibodies were detected in the sections with biotinylated secondary antibodies followed by incubation with streptavidin-biotin-peroxidase (30 min). Afterwards, the sections were incubated with biotinylated tyramide and streptavidin-peroxidase complex (NEN, Life Science Products, USA, code NEL700A) prepared following the manufacturer recommendations, and visualized with 0.015% H2O2 in DAB/TBS for 10 min.

Assay [2] has as its target T1, recombinant erythropoietin receptor (EPOR-Fc) (Homo sapiens, UniProt P19235).
T1 construct: the chip was incubated with soluble recombinant EPOR-Fc under standard conditions
T1 sequence (P19235 25-250 limits assumed): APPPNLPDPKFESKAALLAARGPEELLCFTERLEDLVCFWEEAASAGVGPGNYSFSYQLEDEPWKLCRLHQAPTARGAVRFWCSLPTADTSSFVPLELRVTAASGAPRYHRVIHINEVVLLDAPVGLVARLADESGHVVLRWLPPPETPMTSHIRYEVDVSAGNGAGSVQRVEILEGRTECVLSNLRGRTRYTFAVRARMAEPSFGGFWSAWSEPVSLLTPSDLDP
Put plainly: SPR binding of soluble EPOR-Fc to immobilized Epo 3 peptide. As to the method: The binding of Epo 3 to EPOR-Fc was studied by SPR analysis. The Epo 3 peptide was immobilized on a chip and the chip was incubated with soluble recombinant EPOR-Fc under standard conditions. Three independent experiments were performed. […] The results of binding are shown on FIG. 16.
In general terms: Surface plasmon resonance follows binding to a sensor surface in real time, without labels.

[3] abbreviates: Epo 3 ionic bonded with the chip, soluble EPOR-Fc, three experiments.

Peptide text beside a SMILES is read from it.

On to `CC(C)C[C@H](NC(=O)CNC(=O)[C@H](CO)NC(=O)[C@@H](NC(=O)[C@H](C)NC(=O)[C@H](CCCCN)NC(=O)[C@H](CC(=O)O)NC(=O)[C@@H](NC(=O)[C@H](Cc1c[nH]cn1)NC(=O)[C@H](CC(C)C)NC(=O)[C@@H](N)CCC(N)=O)C(C)C)C(C)C)C(=O)N[C@@H](CCCNC(=N)N)C(=O)N[C@@H](CO)C(=O)N[C@@H](CC(C)C)C(=O)N[C@H](C(=O)N[C@H](C(=O)N[C@@H](CC(C)C)C(=O)N[C@@H](CC(C)C)C(=O)N[C@@H](CCCNC(=N)N)C(=O)N[C@@H](C)C(=O)O)[C@@H](C)O)[C@@H](C)O` [Epo3] (H-QLHVDKAVSGLRSLTTLLRA-OH), for which the “level of PSA-NCAM staining” value in assay [1] (area adjusted to the lesion and subventricular zone) is “significantly increases the level of PSA-NCAM staining”. Besides, the “neurite outgrowth in vivo (GAP-43 immunostaining)” value in assay [1] (cortical lesion area, choroid plexus, hippocampus, hypothalamus) is “stimulates neurite outgrowth”. In addition, the “binding to EPOR” value in assay [2] (Epo 3 covalently bonded to the chip) is on record as “does not bind to EPOR”. In addition, in assay [2] (setting [3]), the association rate ka is 2.1*10^4+−1.4*10^4 and the dissociation rate kd is 4.33*10^−5+−1.62*10^−5. The kon in assay [2] (Epo 3 ionic bonded with the chip, soluble EPOR-Fc, three experiments, read-out: association rate ka) amounted to 21000 M⁻¹ s⁻¹. In assay [2] (Epo 3 ionic bonded with the chip, soluble EPOR-Fc, three experiments, read-out: dissociation rate kd), the koff came to 4.33e-05 s⁻¹. Further, the Kd in assay [2] (Epo 3 ionic bonded with the chip, soluble EPOR-Fc, read-out: overall binding affinity of EPOR to Epo3) turned out to be 4.48 nM.
